Results: US20210269859A1, “PATHOGEN AND ANT[…]” (priority 2014, published 2021)
Read-outs that look alike come from different tables or passages of the source.

Experiments:
Type in all cases: cell-based
[1] = system: kanamycin resistant E. coli K12 MG1655 strain; settings: 100 μl
Method: (§1) A single E. coli bacterial colony (E. coli K12 MG1655) known to be resistant to kanamycin and a single E. coli bacterial colony (E. coli K12 MG1655) known to be resistant to carbenicillin were separately cultured in LB media for 12-15 hrs until the bacterial cells were in mid-log phase (about 10^8 cells/nil). The culture was then serial diluted to 5×10^2, 5×10^3, 5×10^4, and 5×10^5 cells in LB media containing either 50 μg/ml kanamycin or 100 μg/ml carbenicillin. Resazurin was added to each dilution at a final concentration of 20, 40, or 80 μM in a total reaction volume of 100 μl. Each diluted culture was cultured at 37° C. and fluorescence was measured at wavelength 590 nm at 0, 1, 2, 3, 4, 5, and 6 hrs from the start of culture in the presence of the antibiotic.

[2] = system: carbenicillin resistant E. coli K12 MG1655 strain; experiment: Resazurin reduction method, 100 μl total reaction volume
Method: as §1

[3] = system: kanamycin resistant E. coli K12 MG1655 strain; settings: 10 μl
Method: as §1
The resazurin reduction method was repeated using the kanamycin resistant strain but in a 10 μl total reaction volume and with final cell concentrations of 5×10^1, 5×10^2, 5×10^3, and 5×10^4 cells per reaction. The same final resazurin concentrations (20, 40, or 80 μM), kanamycin concentration, and carbenicillin concentration were used as above. Fluorescence was measured at wavelength 590 nm at 0, 1, 2, 3, 4, 5, 6, and 7 hrs from the start of culture in the presence of the antibiotic.

[4] = 50 μg/ml kanamycin or 100 μg/ml carbenicillin, 5×10^2 to 5×10^5 cells, resazurin 20, 40 or 80 μM, 37° C., 0-6 hrs
[5] = higher initial cell concentrations (5×10^3, 5×10^4, 5×10^5 cells)
[6] = lower initial cell concentration (5×10^2 cells)

CC1(C)S[C@@H]2[C@H](NC(=O)C(C(=O)O)c3ccccc3)C(=O)N2[C@H]1C(=O)O (stereo partly drawn) [carbenicillin]
growth of the strain in the presence of the antibiotic (fluorescence at 590 nm) [1, 4]: slow or no growth
growth of the strain in the presence of the antibiotic (fluorescence at 590 nm) [2, 4]: growth
time after initiating the culture at which resistance to the antibiotic could be detected [2, 5]: 1 to 5 h
time after initiating the culture at which resistance to the antibiotic began showing [2, 6]: about 6 hrs
growth of the strain in the presence of the antibiotic (fluorescence at 590 nm) ([3]; same kanamycin and carbenicillin concentrations, 5×10^1 to 5×10^4 cells per reaction, resazurin 20, 40 or 80 μM, 0-7 hrs): slow or no growth

NC[C@H]1O[C@H](O[C@H]2[C@H](O)[C@@H](O[C@H]3O[C@H](CO)[C@@H](O)[C@H](N)[C@H]3O)[C@H](N)C[C@@H]2N)[C@H](O)[C@@H](O)[C@@H]1O [kanamycin]
time after initiating the culture at which resistance to the antibiotic could be detected [1, 5]: 1 to 5 h
time after initiating the culture at which resistance to the antibiotic began showing [1, 6]: about 6 hrs
time after initiating the culture at which resistance to the antibiotic could be detected ([3]; higher initial cell concentrations (5×10^2, 5×10^3, 5×10^4 cells)): 1 to 6 h
time after initiating the culture at which resistance to the antibiotic began showing ([3]; lower initial cell concentration (5×10^1 cells)): about 7 hrs
